From ChEMBL document CHEMBL4385656, “Ciprofloxacin-1,2,3-triazole-isatin hybrids tethered via amide: Design, synthesis, and in vitro anti-mycobacterial activity evaluation” (Bioorg Med Chem Lett, 2019)
In brackets after ≈: the same amount, converted by molar mass.

tested on: Mycobacterium tuberculosis; test: Anti-mycobacterial activity against isoniazid and rifampicin-resistant Mycobacterium tuberculosis; assay type: functional

Compared with O=C1C(=O)N(Cc2cn(CC(=O)N3CCN(c4cc5c(cc4F)c(=O)c(C(=O)O)cn5C4CC4)CC3)nn2)c2ccccc21, CO/N=C1/C(=O)N(Cc2cn(CC(=O)N3CCN(c4cc5c(cc4F)c(=O)c(C(=O)O)cn5C4CC4)CC3)nn2)c2ccccc21 is 67-fold higher in MIC: 0.12 µg/mL (≈ 0.2 µM) for the first, 8 µg/mL (≈ 12.7 µM) for the second.

CO/N=C1/C(=O)N(Cc2cn(CC(=O)N3CCN(c4cc5c(cc4F)c(=O)c(C(=O)O)cn5C4CC4)CC3)nn2)c2c(F)cccc21 and CCO/N=C1/C(=O)N(Cc2cn(CC(=O)N3CCN(c4cc5c(cc4F)c(=O)c(C(=O)O)cn5C4CC4)CC3)nn2)c2c(F)cccc21 are the same in MIC: 32 µg/mL (≈ 49.5 µM) for the first, 32 µg/mL (≈ 48.4 µM) for the second.

Compared with CCO/N=C1/C(=O)N(Cc2cn(CC(=O)N3CCN(c4cc5c(cc4F)c(=O)c(C(=O)O)cn5C4CC4)CC3)nn2)c2ccc(C)cc21, CO/N=C1/C(=O)N(Cc2cn(CC(=O)N3CCN(c4cc5c(cc4F)c(=O)c(C(=O)O)cn5C4CC4)CC3)nn2)c2ccc(C)cc21 is 4-fold lower in MIC: 32 µg/mL (≈ 48.7 µM) for the first, 8 µg/mL (≈ 12.4 µM) for the second.

First: O=C1C(=O)N(Cc2cn(CC(=O)N3CCN(c4cc5c(cc4F)c(=O)c(C(=O)O)cn5C4CC4)CC3)nn2)c2c(F)cccc21
Second: O=C1C(=O)N(Cc2cn(CC(=O)N3CCN(c4cc5c(cc4F)c(=O)c(C(=O)O)cn5C4CC4)CC3)nn2)c2ccc(F)cc21
The MIC of the first is 2-fold higher: 2 µg/mL (≈ 3.24 µM) for the first, 1 µg/mL (≈ 1.62 µM) for the second.

CCO/N=C1/C(=O)N(Cc2cn(CC(=O)N3CCN(c4cc5c(cc4F)c(=O)c(C(=O)O)cn5C4CC4)CC3)nn2)c2ccc(F)cc21 and CO/N=C1/C(=O)N(Cc2cn(CC(=O)N3CCN(c4cc5c(cc4F)c(=O)c(C(=O)O)cn5C4CC4)CC3)nn2)c2ccc(F)cc21 are the same in MIC: 16 µg/mL (≈ 24.2 µM) for the first, 16 µg/mL (≈ 24.7 µM) for the second.

Compared with CCO/N=C1/C(=O)N(Cc2cn(CC(=O)N3CCN(c4cc5c(cc4F)c(=O)c(C(=O)O)cn5C4CC4)CC3)nn2)c2ccccc21, Cc1ccc2c(c1)C(=O)C(=O)N2Cc1cn(CC(=O)N2CCN(c3cc4c(cc3F)c(=O)c(C(=O)O)cn4C3CC3)CC2)nn1 is 8-fold lower in MIC: 16 µg/mL (≈ 24.9 µM) for the first, 2 µg/mL (≈ 3.26 µM) for the second.

Going from O=C(O)c1cn(C2CC2)c2cc(N3CCNCC3)c(F)cc2c1=O [CIPROFLOXACIN] to CO[C@H]1/C=C/O[C@@]2(C)Oc3c(C)c(O)c4c(O)c(c(/C=N/N5CCN(C)CC5)c(O)c4c3C2=O)NC(=O)/C(C)=C\C=C\[C@H](C)[C@H](O)[C@@H](C)[C@@H](O)[C@@H](C)[C@H](OC(C)=O)[C@@H]1C [RIFAMPIN], the MIC rises from 2 µg/mL (≈ 6.04 µM) to > 64 µg/mL.

In the case of NNC(=O)c1ccncc1 [ISONIAZID], the MIC was > 64 µg/mL.

tested on: Mycobacterium tuberculosis; test: Potency index, ratio of MIC for ciprofloxacin to MIC for test compound for anti-mycobacterial activity against isoniazid and rifampicin-resistant Mycobacterium tuberculosis; assay type: functional

In the case of O=C1C(=O)N(Cc2cn(CC(=O)N3CCN(c4cc5c(cc4F)c(=O)c(C(=O)O)cn5C4CC4)CC3)nn2)c2ccccc21, the Ratio was “>=16”.

tested on: Mycobacterium tuberculosis; test: Potency index, ratio of MIC for isoniazid to MIC for test compound for anti-mycobacterial activity against isoniazid and rifampicin-resistant Mycobacterium tuberculosis; assay type: functional

With O=C1C(=O)N(Cc2cn(CC(=O)N3CCN(c4cc5c(cc4F)c(=O)c(C(=O)O)cn5C4CC4)CC3)nn2)c2ccccc21 the Ratio was “>=16”.

tested on: Mycobacterium tuberculosis; test: Potency index, ratio of MIC for rifampicin to MIC for test compound for anti-mycobacterial activity against isoniazid and rifampicin-resistant Mycobacterium tuberculosis; assay type: functional

In the case of O=C1C(=O)N(Cc2cn(CC(=O)N3CCN(c4cc5c(cc4F)c(=O)c(C(=O)O)cn5C4CC4)CC3)nn2)c2ccccc21, the Ratio was “>=16”.
